# Reference: PubChem BioAssay (NCI)
#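 Following 48 hours of exposure in 96-well plates, responses at five concentrations were used to interpolate endpoints linearly. At the TGI there is no net growth.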
# Assays:
# Experiment in all cases: NCI-60 cell line screen, 48 h
# OVCAR-3 ovarian = test system: OVCAR-3 ovarian
# MCF7 breast = test system: MCF7 breast
# NCI-H226 lung = test system: NCI-H226 lung
# HOP-62 NSCLC = test system: HOP-62 NSCLC
# NCI/ADR-RES ovarian = test system: NCI/ADR-RES ovarian
# EKVX NSCLC = test system: EKVX NSCLC
# A549 NSCLC = test system: A549 NSCLC
# SK-MEL-2 melanoma = test system: SK-MEL-2 melanoma
# PC-3 prostate = test system: PC-3 prostate
# SNB-75 CNS = test system: SNB-75 CNS
# SNB-19 CNS = test system: SNB-19 CNS
# UO-31 renal = test system: UO-31 renal
# KM12 colon = test system: KM12 colon
# LOX IMVI melanoma = test system: LOX IMVI melanoma
# SK-MEL-5 melanoma = test system: SK-MEL-5 melanoma
# OVCAR-8 ovarian = test system: OVCAR-8 ovarian
# SF-295 CNS = test system: SF-295 CNS
# COLO 205 colon = test system: COLO 205 colon
# OVCAR-4 ovarian = test system: OVCAR-4 ovarian
# SK-MEL-28 melanoma = test system: SK-MEL-28 melanoma
# OVCAR-5 ovarian = test system: OVCAR-5 ovarian
# IGROV1 ovarian = test system: IGROV1 ovarian
# K-562 leukemia = test system: K-562 leukemia
# HT29 colon = test system: HT29 colon
# HCT-116 colon = test system: HCT-116 colon
# TK-10 renal = test system: TK-10 renal
# HS 578T breast = test system: HS 578T breast
# HOP-92 NSCLC = test system: HOP-92 NSCLC
# HCT-15 colon = test system: HCT-15 colon
# MDA-MB-435 = test system: MDA-MB-435
# BT-549 breast = test system: BT-549 breast
# 786-0 renal = test system: 786-0 renal
# MDA-MB-231 breast = test system: MDA-MB-231 breast
# UACC-257 melanoma = test system: UACC-257 melanoma
# SR leukemia = test system: SR leukemia
# A498 renal = test system: A498 renal
# NCI-H522 lung = test system: NCI-H522 lung
# U251 CNS = test system: U251 CNS
# NCI-H23 lung = test system: NCI-H23 lung
# MALME-3M melanoma = test system: MALME-3M melanoma
# SF-268 CNS = test system: SF-268 CNS
# SK-OV-3 ovarian = test system: SK-OV-3 ovarian
# SF-539 CNS = test system: SF-539 CNS
# SW-620 colon = test system: SW-620 colon
# M14 melanoma = test system: M14 melanoma
# T-47D breast = test system: T-47D breast
# UACC-62 melanoma = test system: UACC-62 melanoma
# MOLT-4 leukemia = test system: MOLT-4 leukemia
# MDA-N = test system: MDA-N
# CCRF-CEM leukemia = test system: CCRF-CEM leukemia
# CAKI-1 renal = test system: CAKI-1 renal
# HL-60(TB) leukemia = test system: HL-60(TB) leukemia
# RPMI-8226 leukemia = test system: RPMI-8226 leukemia
# NCI-H460 lung = test system: NCI-H460 lung
# DU-145 prostate = test system: DU-145 prostate
# ACHN renal = test system: ACHN renal
# HCC-2998 colon = test system: HCC-2998 colon
# RXF 393 renal = test system: RXF 393 renal
# SN12C renal = test system: SN12C renal
compound,measurement,setting,value
CCOc1ccc(Nc2nc(N)nc(N)c2N)cc1,TGI,OVCAR-3 ovarian,> 100 µM
same,TGI,MCF7 breast,38.1 µM
same,TGI,NCI-H226 lung,> 100 µM
same,TGI,HOP-62 NSCLC,79 µM
same,TGI,NCI/ADR-RES ovarian,> 100 µM
same,TGI,EKVX NSCLC,> 100 µM
same,TGI,A549 NSCLC,> 100 µM
same,TGI,SK-MEL-2 melanoma,> 100 µM
same,TGI,PC-3 prostate,> 100 µM
same,TGI,SNB-75 CNS,70.5 µM
same,TGI,SNB-19 CNS,93.4 µM
same,TGI,UO-31 renal,74.3 µM
same,TGI,KM12 colon,73.5 µM
same,TGI,LOX IMVI melanoma,> 100 µM
same,TGI,SK-MEL-5 melanoma,> 100 µM
same,TGI,OVCAR-8 ovarian,> 100 µM
same,TGI,SF-295 CNS,45.8 µM
same,TGI,COLO 205 colon,70.2 µM
same,TGI,OVCAR-4 ovarian,> 100 µM
same,TGI,SK-MEL-28 melanoma,> 100 µM
same,TGI,OVCAR-5 ovarian,> 100 µM
same,TGI,IGROV1 ovarian,28.6 µM
same,TGI,K-562 leukemia,50.1 µM
same,TGI,HT29 colon,33.3 µM
same,TGI,HCT-116 colon,> 100 µM
same,TGI,TK-10 renal,> 100 µM
same,TGI,HS 578T breast,45.7 µM
same,TGI,HOP-92 NSCLC,> 100 µM
same,TGI,HCT-15 colon,> 100 µM
same,TGI,MDA-MB-435,65 µM
same,TGI,BT-549 breast,76.6 µM
same,TGI,786-0 renal,52.3 µM
same,TGI,MDA-MB-231 breast,> 100 µM
same,TGI,UACC-257 melanoma,> 100 µM
same,TGI,SR leukemia,59.3 µM
same,TGI,A498 renal,> 100 µM
same,TGI,NCI-H522 lung,52.1 µM
same,TGI,U251 CNS,66 µM
same,TGI,NCI-H23 lung,> 100 µM
same,TGI,MALME-3M melanoma,66.2 µM
same,TGI,SF-268 CNS,31.1 µM
same,TGI,SK-OV-3 ovarian,> 100 µM
same,TGI,SF-539 CNS,46.3 µM
same,TGI,SW-620 colon,> 100 µM
same,TGI,M14 melanoma,> 100 µM
same,TGI,T-47D breast,54.3 µM
same,TGI,UACC-62 melanoma,> 100 µM
same,TGI,MOLT-4 leukemia,> 100 µM
same,TGI,MDA-N,13.3 µM
same,TGI,CCRF-CEM leukemia,> 100 µM
same,TGI,CAKI-1 renal,70.3 µM
same,TGI,HL-60(TB) leukemia,> 100 µM
same,TGI,RPMI-8226 leukemia,38.1 µM
same,TGI,NCI-H460 lung,98 µM
same,TGI,DU-145 prostate,> 100 µM
same,TGI,ACHN renal,> 100 µM
Cc1c(CN2CCN(C)CC2)c(CN2CCN(C)CC2)c(C)n1-c1ccc(Cl)cc1,TGI,HCC-2998 colon,> 100 µM
same,TGI,OVCAR-3 ovarian,> 100 µM
same,TGI,MCF7 breast,> 100 µM
same,TGI,NCI-H226 lung,> 100 µM
same,TGI,HOP-62 NSCLC,> 100 µM
same,TGI,NCI/ADR-RES ovarian,> 100 µM
same,TGI,EKVX NSCLC,> 100 µM
same,TGI,A549 NSCLC,91.1 µM
same,TGI,SK-MEL-2 melanoma,46.2 µM
same,TGI,RXF 393 renal,> 100 µM
same,TGI,PC-3 prostate,> 100 µM
same,TGI,SNB-75 CNS,88.4 µM
same,TGI,SNB-19 CNS,> 100 µM
same,TGI,UO-31 renal,87.9 µM
same,TGI,KM12 colon,> 100 µM
same,TGI,SK-MEL-5 melanoma,31.7 µM
same,TGI,OVCAR-8 ovarian,51.6 µM
same,TGI,SF-295 CNS,48.9 µM
same,TGI,COLO 205 colon,55.5 µM
same,TGI,OVCAR-4 ovarian,> 100 µM
same,TGI,SK-MEL-28 melanoma,39.2 µM
same,TGI,OVCAR-5 ovarian,> 100 µM
same,TGI,IGROV1 ovarian,> 100 µM
same,TGI,K-562 leukemia,> 100 µM
same,TGI,HT29 colon,42.7 µM
same,TGI,HCT-116 colon,> 100 µM
same,TGI,TK-10 renal,47.8 µM
same,TGI,HS 578T breast,70.6 µM
same,TGI,HCT-15 colon,> 100 µM
same,TGI,MDA-MB-435,62.7 µM
same,TGI,BT-549 breast,> 100 µM
same,TGI,786-0 renal,46.4 µM
same,TGI,MDA-MB-231 breast,> 100 µM
same,TGI,UACC-257 melanoma,29.1 µM
same,TGI,SR leukemia,40.8 µM
same,TGI,A498 renal,51.2 µM
same,TGI,NCI-H522 lung,40.8 µM
same,TGI,U251 CNS,> 100 µM
same,TGI,NCI-H23 lung,> 100 µM
same,TGI,MALME-3M melanoma,37.5 µM
same,TGI,SF-268 CNS,> 100 µM
same,TGI,SK-OV-3 ovarian,> 100 µM
same,TGI,SW-620 colon,> 100 µM
same,TGI,M14 melanoma,32 µM
same,TGI,T-47D breast,46.4 µM
same,TGI,UACC-62 melanoma,33.9 µM
same,TGI,MOLT-4 leukemia,82.8 µM
same,TGI,MDA-N,58.5 µM
same,TGI,SN12C renal,> 100 µM
same,TGI,CCRF-CEM leukemia,46.8 µM
same,TGI,CAKI-1 renal,59.9 µM
same,TGI,RPMI-8226 leukemia,> 100 µM
same,TGI,NCI-H460 lung,> 100 µM
same,TGI,DU-145 prostate,> 100 µM
same,TGI,ACHN renal,> 100 µM
